Tests used:
[1] = test system: RXFP-1 receptor; details: serelaxin versus pRLX, similar cellular models; cited from earlier work
[2] = target: T1, RXFP1 relaxin receptor (Homo sapiens, UniProt Q9HBX9); experiment: cAMP response by THP-1 cells to intact relaxins; assay type: cell-based; details: intact peptide 100 ng/mL, 15 min stimulation, IBMX 100 μM, forskolin 10^−4 M as maximum, chemiluminescent HitHunterXP cAMP II assay, triplicate points, two independent experiments
T1 construct: a marked, significant rise of cAMP in RXFP-1-expressing THP-1 cells; endogenous in cells; host or cells: THP-1 human monocytic cells (ECACC)
T1 sequence (Q9HBX9 1-757): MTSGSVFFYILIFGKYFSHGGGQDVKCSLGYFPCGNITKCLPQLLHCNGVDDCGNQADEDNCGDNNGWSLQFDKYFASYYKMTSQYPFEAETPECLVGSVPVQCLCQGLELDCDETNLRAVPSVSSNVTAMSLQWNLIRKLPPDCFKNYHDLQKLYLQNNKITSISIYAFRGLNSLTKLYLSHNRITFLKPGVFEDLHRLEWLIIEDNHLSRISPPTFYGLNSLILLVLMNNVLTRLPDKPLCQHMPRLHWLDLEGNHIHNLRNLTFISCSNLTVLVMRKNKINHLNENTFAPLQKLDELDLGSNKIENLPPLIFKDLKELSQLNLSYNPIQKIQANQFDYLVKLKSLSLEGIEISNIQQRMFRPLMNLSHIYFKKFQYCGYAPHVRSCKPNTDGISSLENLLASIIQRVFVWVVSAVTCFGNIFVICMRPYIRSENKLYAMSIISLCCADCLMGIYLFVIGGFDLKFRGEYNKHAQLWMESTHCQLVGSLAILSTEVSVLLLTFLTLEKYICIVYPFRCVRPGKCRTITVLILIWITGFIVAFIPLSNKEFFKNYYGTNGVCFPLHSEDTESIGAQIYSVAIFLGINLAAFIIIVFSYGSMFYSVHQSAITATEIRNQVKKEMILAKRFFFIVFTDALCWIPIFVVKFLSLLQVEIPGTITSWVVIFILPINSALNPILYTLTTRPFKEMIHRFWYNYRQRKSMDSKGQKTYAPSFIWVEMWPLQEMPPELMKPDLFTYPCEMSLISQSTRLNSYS
Protocol: Human monocytic THP-1 cells (European Collection of Cell Cultures ECACC, Salisbury, UK) were cultured in suspension in RPMI medium containing 10% fetal calf serum, 250 U/mL penicillin G and 250 μg/mL streptomycin in a 5% CO2 atmosphere at 37 °C. Aliquots containing 6 × 10^5 THP-1 cells in 1 mL PBS were placed in a 24-well plate, added with IBMX (100 μM) to prevent cAMP catabolism, and then incubated with intact serelaxin (100 ng/mL), pRLX (100 ng/mL) or equivalent solutions of their digestion by-products. According to previous studies, cAMP assay was carried out 15 min after addition of the stimuli, i.e., in the midst of the second, sustained cAMP surge upon RXFP1 stimulation. Measurements of cAMP were determined by the chemiluminescent HitHunterXP™ cAMP II assay (DiscoverX, Birmingham, UK). The standard curve was performed in duplicate, and the experimental points in triplicate. Since the standard curve was sigmoidal, nonlinear regression was used to extrapolate unknown experimental cAMP values, expressed as nmol/L, according to the manufacturer’s instructions. Two independent experiments were performed. For positive control, the adenylate cyclase activator forskolin (10^−4 M) was used. Finally, the values of cAMP in each experimental sample were normalized by the amount of proteins, measured by the micro-BCATM Protein Assay Kit (Pierce, IL, USA) method, and expressed as mg/mL.

[3] = test system: acute heart failure patients; design: method as in PMID 31433919, PMID 31886953; details: IV infusion 30 μg/kg/day; cited from earlier work
[4] = target: T1, RXFP1 relaxin receptor; experiment: cAMP response by THP-1 cells to SIF digestion products; assay type: cell-based; details: SIF: pancreatin 500 μg/mL, CaCl2, pH 7, 37 °C, peptide 1.12 μM; digestion products tested at equivalent of 100 ng/mL on THP-1 cells, 15 min; read-out cAMP
Protocol: The effects of duodenal enzyme digestion on the noted serelaxin and pRLX preparations was carried out by addition of a simulated intestinal fluid (SIF), composed of a solution of pancreatin (500 μg/mL), CaCl2 0.75 M (0.1 v/v), pH adjusted to 7 adding dropwise an aqueous solution of NaOH 0.1 M to pRLX and serelaxin solutions. In particular: 0.5 mg/mL aqueous solution of pRLX (MW 5918, 0.084 mM) was added to SIF in a 50 mL Falcon, mixing in a 37 °C bath, to a final pRLX concentration 1.12 μM; 0.2 mL of this solution were sampled and quenched by pH adjusting (0.1 M HCl), at the following times: t = 0”/10”/20”/30”/60”/120”/600”/1800”. […]
Human monocytic THP-1 cells (European Collection of Cell Cultures ECACC, Salisbury, UK) were cultured in suspension in RPMI medium containing 10% fetal calf serum, 250 U/mL penicillin G and 250 μg/mL streptomycin in a 5% CO2 atmosphere at 37 °C. […] Measurements of cAMP were determined by the chemiluminescent HitHunterXP™ cAMP II assay (DiscoverX, Birmingham, UK). […] Since the standard curve was sigmoidal, nonlinear regression was used to extrapolate unknown experimental cAMP values, expressed as nmol/L, according to the manufacturer’s instructions. […] Finally, the values of cAMP in each experimental sample were normalized by the amount of proteins, measured by the micro-BCATM Protein Assay Kit (Pierce, IL, USA) method, and expressed as mg/mL.

[5] = design: method as in PMID 8257492; details: in vivo; cited from earlier work

## serelaxin
[1]
  affinity for the RXFP-1 receptor relative to the other relaxin: higher affinity
[2]
  intracellular cAMP increase as % of the maximal cAMP surge induced by forskolin: 88.6%
[3]
  effects on length of hospitalization, occurrence of cardiovascular death, and disease relapses requiring re-hospitalization in comparison with placebo: no substantial effects
[4]
  SIF exposure time at which cAMP levels dropped down to levels of unstimulated control cells: 120 s
  SIF exposure time at which the decrease in cAMP production became fully manifest and statistically significant: 60 s
[5]
  half-life: about 2 h

From publication PMC9820531, “Porcine Relaxin but Not Serelaxin Shows Residual Bioactivity after In Vitro Simulated Intestinal Digestion—Clues for the Development of New Relaxin Peptide Agonists Suitable for Oral Delivery” (International Journal of Molecular Sciences, 2022)
